According to paper PMC5078989, “Targeted inhibition of the COP9 signalosome for treatment of cancer” (Nature Communications, 2016):

Assays:
[1] = biological target: T1, human MMP1 (Homo sapiens, UniProt P03956); assay: Selectivity assay MMP1; format: biochemical
T1 construct: Human MMP1 (Uniprot P03956), amino acids 1–469; made in house; host or cells: stably transfected C127 cells
T1 sequence (P03956 20-469): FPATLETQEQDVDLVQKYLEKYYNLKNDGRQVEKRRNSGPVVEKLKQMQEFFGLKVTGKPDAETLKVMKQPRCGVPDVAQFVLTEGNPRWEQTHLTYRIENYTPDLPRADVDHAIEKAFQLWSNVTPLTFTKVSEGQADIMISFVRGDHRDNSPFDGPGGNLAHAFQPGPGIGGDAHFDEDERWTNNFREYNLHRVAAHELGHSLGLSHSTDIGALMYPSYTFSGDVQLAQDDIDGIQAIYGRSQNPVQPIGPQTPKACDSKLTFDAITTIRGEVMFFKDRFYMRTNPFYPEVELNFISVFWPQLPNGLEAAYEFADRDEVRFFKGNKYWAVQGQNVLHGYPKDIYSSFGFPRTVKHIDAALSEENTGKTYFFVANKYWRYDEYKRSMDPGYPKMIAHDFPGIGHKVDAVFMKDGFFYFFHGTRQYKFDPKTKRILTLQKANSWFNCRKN
Description: All biochemical assays were performed at room temperature in 384-well plates in a total volume of 25.25 μl per well. Test compounds were dissolved in 90% (v/v) DMSO/water. For the assays, 250 nl of compound solution was added per well, followed by addition of 12.5 μl protease solution. After 70 min of pre-incubation at room temperature, the reactions were started by addition of 12.5 μl substrate solution and followed either by measuring fluorescence intensity (rhodamine 110-based substrates) or by fluorescence lifetime (PT14-based substrates). The effect of compound on enzymatic activity was obtained from the linear part of the progress curves and determined after 1 h (t=60 min). The final compound concentrations ranged from 100 μM to 1 nM.
Matrix metalloproteinases. […]

[2] = system: SU-DHL-1 cells; assay: Immunoblotting for PARP and caspase 3 in SU-DHL-1 cells; format: cell-based, human; settings: SU-DHL-1, 1 μM, 24 h or 48 h
Description: Cells were maintained in a humidified incubator at 37 °C and 5% CO2. […] All cells were negatively tested for mycoplasma contamination either by the vendor or in house. […] If not stated otherwise, cells were harvested after incubation for 16 h and subjected to SDS-PAGE and western blotting. The RNA interference experiment was performed with CSN5 stealth siRNA (#HSS116986) and stealth negative control siRNA (#12935-400) (Invitrogen), which were transfected at 10 nM into HCT116 cells using […] (Qiagen) according to the manufacturer's protocols. Seventy-two hours after transfection, cells were harvested and subjected to SDS-PAGE and western blotting (see Supplementary Fig. 7 for all western blottings performed). […] Cells from longer compound incubations were also lysed in RIPA buffer, which allows the protein concentration to be determined by BCA Protein Assay Kit (Pierce). Proteins were separated by SDS-PAGE using 4-20% Tris-Glycine Gels (Invitrogen) and subsequently transferred to polyvinylidene difluoride membranes using a Trans-Blot Turbo System (BioRad). […] Horseradish peroxidase-conjugated secondary antibodies (1:3,000) were purchased from Promega AG and bound antibody was detected by enhanced chemiluminescence (Pierce). page 5: Supplementary Figure 5 a b 0 Cul1-Nedd8 Cul1-Nedd8 Cul1 -20 Cul1 Fbxo7 -40 Fbxo7 -60 Actin -80 Actin CDK6 -100 CDK6 […] […]

CC(C)n1nc(C(F)F)cc1C(=O)Nc1ccc([C@H]2[C@@H](O)CCCc3cncn32)c(-c2ccccc2)c1 [CSN5i-3, 3-(Difluoromethyl)-N-(6-((5S,6S)-6-hydroxy-6,7,8,9-tetrahydro-5H-imidazo[1,5-a]azepin-5-yl)-[1,1′-biphenyl]-3-yl)-1-isopropyl-1H-pyrazole-5-carboxamide]
IC50 [1]: > 100 µM | apoptosis markers (cleaved PARP, cleaved caspase 3) [2]: triggered the formation of cleaved PARP and cleaved caspase 3
